# Where “and” joins values, the source holds several entries; their conditions need not be identical. Equal entries are not always repeated. Calls of active or inactive are those of the source. The rule behind the calls is not given here.
# Test system: rodent lifetime carcinogenesis bioassay, tumor incidence TD50
# Experiment: chronic cancer bioassays in animals – CPDB, compiled studies (AID 1745844)
compound,measurement,setting,value
O=NO,TD50,"hamster, strain Syrian Golden, females, in feed, site: any site (literature study), lesion: one or several types, types not named, dosed 97 weeks, study length 97 weeks",477 mg/kg/day
same,TD50,"mouse, strain B6C3F1, females, in drinking water, site: any site (literature study), lesion: several types, types named in the paper, dosed 104 weeks, study length 104 weeks",459 mg/kg/day
same,TD50,"mouse, strain B6C3F1, females, in drinking water, site: forestomach, lesion: squamous-cell carcinoma + squamous-cell papilloma, dosed 104 weeks, study length 104 weeks",1610 mg/kg/day
same,TD50,"mouse, strain B6C3F1, females, in drinking water, site: lung, lesion: alveolar/bronchiolar adenoma + alveolar/bronchiolar carcinoma, dosed 104 weeks, study length 104 weeks",843 mg/kg/day
same,TD50,"mouse, strain B6C3F1, males, in drinking water, site: any site (literature study), lesion: several types, types named in the paper, dosed 104 weeks, study length 104 weeks",9190 mg/kg/day (inactive)
same,TD50,"mouse, strain B6C3F1, males, in drinking water, site: lung, lesion: alveolar/bronchiolar adenoma + alveolar/bronchiolar carcinoma, dosed 104 weeks, study length 104 weeks",990 mg/kg/day
same,carcinogen call,"mouse, strain C57BL/6, females, in drinking water, site: liver, lesion: several types, types named in the paper, dosed 117 weeks, study length 126 weeks",negative (inactive)
same,TD50,"mouse, strain C57BL/6, females, in drinking water, site: lung, lesion: one or several types, types not named, dosed 117 weeks, study length 126 weeks",5200 mg/kg/day (inactive)
same,carcinogen call,"mouse, strain C57BL/6, females, in feed, site: any site (literature study), lesion: several types, types named in the paper, dosed 52 weeks, study length 69 weeks",negative (inactive)
same,carcinogen call,"mouse, strain C57BL/6, females, in feed, site: liver, lesion: hepatocellular carcinoma, dosed 52 weeks, study length 69 weeks",negative (inactive)
same,carcinogen call,"mouse, strain C57BL/6, females, in feed, site: lung, lesion: adenoma, dosed 52 weeks, study length 69 weeks",negative (inactive)
same,TD50,"mouse, strain C57BL/6, males, in feed, site: any site (literature study), lesion: several types, types named in the paper, dosed 52 weeks, study length 69 weeks",1210 mg/kg/day (inactive)
same,carcinogen call,"mouse, strain C57BL/6, males, in feed, site: liver, lesion: hepatocellular carcinoma, dosed 52 weeks, study length 69 weeks",negative (inactive)
same,TD50,"mouse, strain C57BL/6, males, in feed, site: lung, lesion: adenoma, dosed 52 weeks, study length 69 weeks",1610 mg/kg/day (inactive)
same,carcinogen call,"mouse, strain ICR/Jcl, females, in drinking water, site: any site (literature study), lesion: several types, types named in the paper, dosed 109 weeks, study length 109 weeks",negative (inactive)
same,carcinogen call,"mouse, strain ICR/Jcl, females, in drinking water, site: liver, lesion: one or several types, types not named, dosed 109 weeks, study length 109 weeks",negative (inactive)
same,TD50,"mouse, strain ICR/Jcl, females, in drinking water, site: lung, lesion: one or several types, types not named, dosed 109 weeks, study length 109 weeks",7230 mg/kg/day (inactive)
same,carcinogen call,"mouse, strain ICR/Jcl, males, in drinking water, site: any site (literature study), lesion: several types, types named in the paper, dosed 109 weeks, study length 109 weeks",negative (inactive)
same,TD50,"mouse, strain ICR/Jcl, males, in drinking water, site: liver, lesion: one or several types, types not named, dosed 109 weeks, study length 109 weeks",25000 mg/kg/day (inactive)
same,TD50,"mouse, strain ICR/Jcl, males, in drinking water, site: lung, lesion: one or several types, types not named, dosed 109 weeks, study length 109 weeks",16300 mg/kg/day (inactive)
same,TD50,"mouse, strain Swiss CD-1, females, in drinking water, site: liver, lesion: hepatocellular tumor, dosed 34 weeks, study length 125 weeks",744 mg/kg/day (inactive)
same,carcinogen call,"mouse, strain Swiss CD-1, females, in drinking water, site: lung, lesion: one or several types, types not named, dosed 34 weeks, study length 125 weeks",negative (inactive)
same,carcinogen call,"mouse, strain Swiss CD-1, males, in drinking water, site: liver, lesion: hepatocellular tumor, dosed 34 weeks, study length 115 weeks",negative (inactive)
same,TD50,"mouse, strain Swiss CD-1, males, in drinking water, site: lung, lesion: one or several types, types not named, dosed 34 weeks, study length 115 weeks",103 mg/kg/day (inactive)
same,carcinogen call,"mouse, strain VM, females, in drinking water, site: brain, lesion: glioma, dosed 134 weeks, study length 134 weeks",negative (inactive)
same,carcinogen call,"mouse, strain VM, males, in drinking water, site: brain, lesion: glioma, dosed 113 weeks, study length 113 weeks",negative (inactive)
same,TD50,"rat, strain Charles River CD (Sprague-Dawley), both sexes, in feed, site: all sites, lesion: malignant lymphoma, dosed 123 weeks, study length 123 weeks",539 mg/kg/day
same,TD50,"rat, strain Charles River CD (Sprague-Dawley), both sexes, in feed, site: liver, lesion: angiosarcoma, dosed 123 weeks, study length 123 weeks",5840 mg/kg/day
same,TD50,"rat, strain Charles River CD (Sprague-Dawley), both sexes, in feed, site: spleen, lesion: lymphoma, dosed 123 weeks, study length 123 weeks",601 mg/kg/day
same,carcinogen call,"rat, strain F344/DuCrj, males, in drinking water, site: forestomach, lesion: one or several types, types not named, dosed 51 weeks, study length 51 weeks",negative (inactive)
same,carcinogen call,"rat, strain F344/DuCrj, males, in drinking water, site: stomach, glandular, lesion: one or several types, types not named, dosed 51 weeks, study length 51 weeks",negative (inactive)
same,TD50,"rat, strain Fischer 344, females, in drinking water, site: adrenal gland, lesion: medullary tumor, dosed 104 weeks, study length 128 weeks",163 mg/kg/day
same,TD50,"rat, strain Fischer 344, females, in drinking water, site: any site (literature study), lesion: several types, types named in the paper, dosed 104 weeks, study length 104 weeks",74400 mg/kg/day (inactive)
same,carcinogen call,"rat, strain Fischer 344, females, in drinking water, site: any site (literature study), lesion: several types, types named in the paper, dosed 104 weeks, study length 120 weeks",negative (inactive)
same,TD50,"rat, strain Fischer 344, females, in drinking water, site: liver, lesion: hepatocellular carcinoma, dosed 104 weeks, study length 128 weeks",1550 mg/kg/day
same,TD50,"rat, strain Fischer 344, females, in drinking water, site: liver, lesion: neoplastic nodule, dosed 104 weeks, study length 128 weeks",185 mg/kg/day
same,carcinogen call,"rat, strain Fischer 344, females, in drinking water, site: liver, lesion: several types, types named in the paper, dosed 104 weeks, study length 120 weeks",negative (inactive)
same,TD50,"rat, strain Fischer 344, females, in drinking water, site: liver, lesion: several types, types named in the paper, dosed 104 weeks, study length 128 weeks",153 mg/kg/day
same,TD50,"rat, strain Fischer 344, females, in drinking water, site: mammary tissue, wider than the gland, lesion: one or several types, types not named, dosed 104 weeks, study length 128 weeks",115 mg/kg/day
same,TD50,"rat, strain Fischer 344, females, in drinking water, site: thyroid gland, lesion: carcinoma, dosed 104 weeks, study length 128 weeks",163 mg/kg/day
same,TD50,"rat, strain Fischer 344, females, in drinking water, site: uterus, lesion: polyp, dosed 104 weeks, study length 128 weeks",218 mg/kg/day
same,carcinogen call,"rat, strain Fischer 344, females, in feed, site: any site (literature study), lesion: several types, types named in the paper, dosed 52 weeks, study length 69 weeks",negative (inactive)
same,TD50,"rat, strain Fischer 344, females, in feed, site: liver, lesion: carcinoma, dosed 104 weeks, study length 130 weeks",470 mg/kg/day
same,TD50,"rat, strain Fischer 344, females, in feed, site: liver, lesion: hepatocellular carcinoma, dosed 104 weeks, study length 128 weeks",629 mg/kg/day
same,TD50,"rat, strain Fischer 344, females, in feed, site: liver, lesion: hepatocellular carcinoma, dosed 104 weeks, study length 130 weeks",516 mg/kg/day
same,TD50,"rat, strain Fischer 344, females, in feed, site: liver, lesion: neoplastic nodule, dosed 104 weeks, study length 128 weeks",164 mg/kg/day
same,TD50,"rat, strain Fischer 344, females, in feed, site: liver, lesion: neoplastic nodule, dosed 104 weeks, study length 130 weeks",199 mg/kg/day and 218 mg/kg/day
same,carcinogen call,"rat, strain Fischer 344, females, in feed, site: liver, lesion: one or several types, types not named, dosed 52 weeks, study length 69 weeks",negative (inactive)
same,TD50,"rat, strain Fischer 344, females, in feed, site: liver, lesion: several types, types named in the paper, dosed 104 weeks, study length 128 weeks",141 mg/kg/day
same,TD50,"rat, strain Fischer 344, females, in feed, site: liver, lesion: several types, types named in the paper, dosed 104 weeks, study length 130 weeks",124 mg/kg/day and 136 mg/kg/day
same,carcinogen call,"rat, strain Fischer 344, males, in drinking water, site: any site (literature study), lesion: several types, types named in the paper, dosed 104 weeks, study length 120 weeks",negative (inactive)
same,TD50,"rat, strain Fischer 344, males, in drinking water, site: liver, lesion: hepatocellular adenoma + hepatoblastoma + hepatocellular carcinoma, dosed 104 weeks, study length 104 weeks",6550 mg/kg/day
same,TD50,"rat, strain Fischer 344, males, in drinking water, site: liver, lesion: hepatocellular carcinoma, dosed 104 weeks, study length 128 weeks",1040 mg/kg/day
same,TD50,"rat, strain Fischer 344, males, in drinking water, site: liver, lesion: several types, types named in the paper, dosed 104 weeks, study length 120 weeks",1310 mg/kg/day (inactive)
same,TD50,"rat, strain Fischer 344, males, in drinking water, site: liver, lesion: several types, types named in the paper, dosed 104 weeks, study length 128 weeks",946 mg/kg/day
same,TD50,"rat, strain Fischer 344, males, in drinking water, site: skin, lesion: fibroma, dosed 104 weeks, study length 104 weeks",667 mg/kg/day (inactive)
same,carcinogen call,"rat, strain Fischer 344, males, in feed, site: all sites, lesion: granulocytic leukemia, dosed 115 weeks, study length 115 weeks",negative (inactive)
same,carcinogen call,"rat, strain Fischer 344, males, in feed, site: all sites, lesion: mononuclear-cell leukemia, dosed 115 weeks, study length 115 weeks",negative (inactive)
same,carcinogen call,"rat, strain Fischer 344, males, in feed, site: any site (literature study), lesion: one or several types, types not named, dosed 115 weeks, study length 115 weeks",negative (inactive)
same,carcinogen call,"rat, strain Fischer 344, males, in feed, site: any site (literature study), lesion: several types, types named in the paper, dosed 52 weeks, study length 69 weeks",negative (inactive)
same,TD50,"rat, strain Fischer 344, males, in feed, site: liver, lesion: neoplastic nodule, dosed 104 weeks, study length 130 weeks",467 mg/kg/day and 674 mg/kg/day
same,carcinogen call,"rat, strain Fischer 344, males, in feed, site: liver, lesion: one or several types, types not named, dosed 52 weeks, study length 69 weeks",negative (inactive)
same,TD50,"rat, strain Fischer 344, males, in feed, site: liver, lesion: several types, types named in the paper, dosed 104 weeks, study length 130 weeks",445 mg/kg/day and 641 mg/kg/day
same,carcinogen call,"rat, strain Fischer 344, males, in feed, site: several sites, sites named in the paper, lesion: lymphoma, dosed 115 weeks, study length 115 weeks",negative (inactive)
same,carcinogen call,"rat, strain Fischer 344, males, in feed, site: testis, lesion: interstitial-cell tumor, dosed 115 weeks, study length 115 weeks",negative (inactive)
same,carcinogen call,"rat, strain MRC, females, in drinking water, site: any site (literature study), lesion: one or several types, types not named, dosed 67 weeks, study length 122 weeks",negative (inactive)
same,TD50,"rat, strain MRC, females, in drinking water, site: any site (literature study), lesion: several types, types named in the paper, dosed 84 weeks, study length 104 weeks",57.3 mg/kg/day (inactive)
same,carcinogen call,"rat, strain MRC, females, in drinking water, site: liver, lesion: one or several types, types not named, dosed 67 weeks, study length 122 weeks",negative (inactive)
same,carcinogen call,"rat, strain MRC, males, in drinking water, site: any site (literature study), lesion: one or several types, types not named, dosed 67 weeks, study length 122 weeks",negative (inactive)
same,TD50,"rat, strain MRC, males, in drinking water, site: any site (literature study), lesion: several types, types named in the paper, dosed 84 weeks, study length 104 weeks",61.9 mg/kg/day (inactive)
same,carcinogen call,"rat, strain MRC, males, in drinking water, site: liver, lesion: one or several types, types not named, dosed 67 weeks, study length 122 weeks",negative (inactive)
same,carcinogen call,"rat, strain Wistar, males, in drinking water, site: liver, lesion: hepatocellular carcinoma, dosed 94 weeks, study length 94 weeks",negative (inactive)
same,carcinogen call,"rat, strain Wistar, males, in drinking water, site: liver, lesion: one or several types, types not named, dosed 102 weeks, study length 102 weeks",negative (inactive)
same,carcinogen call,"rat, strain Wistar, males, in drinking water, site: lung, lesion: one or several types, types not named, dosed 94 weeks, study length 94 weeks",negative (inactive)
same,carcinogen call,"rat, strain Wistar, males, in drinking water, site: nasal cavity, lesion: one or several types, types not named, dosed 94 weeks, study length 94 weeks",negative (inactive)
same,TD50,"rat, strain Wistar, males, in feed, site: liver, lesion: several types, types named in the paper, dosed 92 weeks, study length 92 weeks",155 mg/kg/day

# Reference: PubChem BioAssay AID1745844 (Carcinogenic Potency Database (CPDB), 2022)
